Assay results reported in ChEMBL document CHEMBL3507680, “University of Dundee, Gates Library screen for HepG2 cell viability”.

Test: Human HepG2 cell viability assay in 384 well format
Format: toxicity, cell-based
Parameters: dose 125 nL, time 70.5 hour; cytotoxicity at 70.5 h: concentration not given beside the values
Conditions: HepG2 cells, read-out: Inhibition

SMILES	cytotoxicity at 70.5 h [%]
COc1ccsc1C(=O)N1CCCC1c1c(C)nn(C)c1OC (centres undefined)	-4.7
COc1ccc(S(=O)(=O)N2CCC[C@@H]3CN(C(=O)C4CC4)C[C@@H]32)cc1F	21.2
CC(c1nc(-c2ccccc2)no1)N1CC(n2cccn2)C1 (centres undefined)	-4.14
Clc1cc(CN2CCCCC2Cn2cncn2)c2ncccc2c1 (centres undefined)	-9.86
Cc1n[nH]c(C)c1CCNC(=O)Nc1ccc(S(C)(=O)=O)cc1	-20
CCCNC(=O)CNc1cc(C(=O)N2CCSCC2)ccc1C	-6
Cc1nc(C)c(C)c(NCc2cnn3cccnc23)n1	3.17
Cc1cccc(C(=O)NCc2ccc(N3CCCCC3)nc2)n1	-3.76
O=C(COc1cccc2c1CCC2=O)NCCSc1ccccc1	3.81
COc1c(F)ccc(C(=O)N2CC[C@H](CO)[C@@H](O)C2)c1F	-3.48
CC(C)c1noc(C(C)N2CCN(Cc3cccs3)CC2)n1 (centres undefined)	12.6
CS(=O)(=O)N1CCN(CC(=O)Nc2cccc(Cl)c2)CC1	5.96
COc1ccc(C(=O)N2CCCC(n3cncn3)C2)nn1 (centres undefined)	10.5
COCCN1CCC12CCN(C(=O)c1ccc3[nH]ccc3c1)C2 (centres undefined)	-7.37
CCNc1ncc(C(=O)NC2CCOCC2)cn1	-5.98
CCn1ccnc1CN1CCC(Oc2cccc(F)c2)(C(=O)O)CC1	-4.69
Cc1cnc(N2C[C@@H]3CN(Cc4ccco4)CCC[C@]3(C(=O)O)C2)nc1	-5.9
CNc1cc(N2CCCC2CNCc2csc(C)n2)ncn1 (centres undefined)	6.11
CCS(=O)(=O)NCCNc1c(C#N)cnc2c(F)cc(F)cc12	-0.0012
CC(=O)N1CCC(N2CCN3C(=O)N(c4ccccc4)C[C@H]3C2)CC1	3.66
Cc1cccc(Cn2cc(Br)c(NS(C)(=O)=O)n2)c1	-6.39
CC(C)(CNC(=O)c1ccc(Cl)o1)NC(=O)OC(C)(C)C	22.2
Cc1c(OCC(=O)NCc2ccccc2)c(=O)ccn1C	-17.6

SMILES	cytotoxicity at 70.5 h [%]
CCS(=O)(=O)N1CC(=O)N(CCCc2ccccc2)CC(O)C1 (centres undefined)	-3.91
O=c1[nH]c(NCCO)nc2c1C1(CCCCC1)Cc1ccccc1-2	-1.9
CS(=O)(=O)N1CCC2(CC1)CC(CC(=O)NC1CC1)c1ccccc12 (centres undefined)	-20.3
CNC(C(=O)N1CCC(c2nccn2C(C)C)CC1)c1ccccc1 (centres undefined)	-8.05
CCC(C)(NCC(=O)OC)c1nccs1 (centres undefined)	-2.64
CCNC(=O)CCC(=O)Nc1nc(C)c(Cc2ccc(F)cc2)s1	-1.26
O=C(c1nn(-c2ccccc2F)cc1O)N1CCC2(CC1)OCCO2	13.2
Cc1ncncc1C(=O)N1CCCC(c2[nH]ncc2S(C)(=O)=O)C1 (centres undefined)	-6.13
Cn1nc(C2CN(S(C)(=O)=O)C2)c2nccnc21	3.57
Cc1cnn(CC2CCCN2C(=O)CCc2ccco2)c1 (centres undefined)	-6.55
c1cnn(CC2CN(CC3CCCCC3)CCO2)c1 (centres undefined)	-0.377
O=C1CC(N(C(=O)CCc2c[nH]c3ccccc23)C2CC2)C(=O)N1 (centres undefined)	-14.1
Cc1nc(CN2CCC3(CCCN(Cc4cccnc4)C3)C2=O)cs1 (centres undefined)	26.7
O=C(NCc1cccs1)C1CNCC12CCOCC2 (centres undefined)	0.759
Cc1cc(C)cc(OCC(=O)N2CCCN(CC(N)=O)CC2)c1	-16.4
O=C(C1CCCC1)N1CCn2c(nnc2C2CCCNC2)C1 (centres undefined)	-3.22
CC(C)n1cnc2c1C(C(=O)N1CCCC1)N(S(C)(=O)=O)CC2 (centres undefined)	-0.195
CC(C)CCC(=O)N1CCCC1c1nnc2n1CCCCC2 (centres undefined)	-6.64
CCn1ccc(C(=O)NCCCN2CCOCC2)n1	-11.6
CCOc1ccc(C(=O)N2CCCC(n3nc(C)nc3C)C2)cc1 (centres undefined)	1.39
CC(=O)Nc1nccn1Cc1ccccc1Cl	-2.67
CC(=O)N1CCN(C(=O)NC(C)C)CC2(CC(=O)N(C)C2)C1 (centres undefined)	-13.5
CCN(CC)C1CCN(C(=O)NCc2cccc(-n3ccnc3)c2)C1 (centres undefined)	-6.04

SMILES	cytotoxicity at 70.5 h [%]
O=C(Nc1cccnc1)c1nn(C2CCS(=O)(=O)C2)c2c1CCCC2 (centres undefined)	-23.7
Cc1nc(C)c(C(=O)N2CCCC2(C)C(=O)NC2CCCC2)o1 (centres undefined)	8.88
CCCOC1CCCN(c2nc(COC)nc3c2cnn3C)C1 (centres undefined)	-19
Cn1cc(C(=O)NC2CCCC2)c(-c2cccnc2)n1	-10.4
Cc1nc(NCC2CC2)nc2c1COCC21CCN(S(=O)(=O)C2CC2)C1 (centres undefined)	-15.4
CS(=O)(=O)N1CC(=O)N(CCCc2ccccc2)CC(O)C1 (centres undefined)	-8.69
CN(Cc1nnc(C2CC2)n1C)C1CCN(Cc2ccncc2)C1 (centres undefined)	-2.37
COc1ccc2c(c1)C(NCCc1c(C)noc1C)CCCO2 (centres undefined)	29.3
CC(Cn1cccn1)NCCS(=O)(=O)c1ccc(Cl)cc1 (centres undefined)	-9.68
O=C(c1cscn1)N1CCO[C@H]2[C@@H](Oc3ccccn3)CC[C@@H]21	-10.4
O=C(O)c1ccc2ccc(N3CCN(CC4CC4)CC3)n2c1	-9.01
CC(C(=O)NCCOc1ccc(F)cc1)n1cncn1 (centres undefined)	-14.7
Cc1csc(CN2CC[C@H]3C[C@H](C)O[C@@H]3C2)n1	-10.4
CC(NCc1cnc(C2CCC2)s1)c1ccccc1-n1cccn1 (centres undefined)	-3.26
O=C(c1cc2c(Cl)cccc2[nH]1)N1CCN(CCc2ccccn2)CC1	24.6
Nc1nc2c(c(N3CCCC(c4nnc5ccccn45)C3)n1)CCNC2 (centres undefined)	-2.11
CC(C)CCN1CC2(CCCN(C(=O)c3cscn3)C2)CCC1=O (centres undefined)	-8.72
Cc1noc(CN2CC(=O)N(C)c3ccccc3C2=O)n1	-8.97
COCCn1cnc2ccc(NC(=O)c3c(C)noc3C)cc2c1=O	30.3
CC(=O)N1CCCN(Cc2cc(F)cc(Br)c2)CC1	21
CC(C)CCCNC(=O)Nc1ccc(Cl)c(C(N)=O)c1	1.37
CC(C)OCCCN(Cc1ccncc1)Cc1cc(F)cc(F)c1	58.6
Cc1noc(C)c1CN1CCc2ncc(Cn3cccn3)n2CC1	-5.78

SMILES	cytotoxicity at 70.5 h [%]
CCOc1ccc(C2CCCN2C(=O)NCCn2ccnc2)cc1 (centres undefined)	-1.63
Cc1cc(C(=O)NC2CCCN(c3ccccc3)C2=O)on1 (centres undefined)	0.654
CCNc1ncc(CN(Cc2ccccc2)CC(C)CO)cn1 (centres undefined)	-4.08
Cc1ccc(F)c(C(=O)NC2CCC(N3C(=O)CCC3=O)CC2)c1 (centres undefined)	-0.936
COc1ccc(-n2ccc(C(=O)N(CCN(C)C)C(C)C)n2)cc1	-10.3
COCCN1CCC2(CC1)COc1ccccc1S(=O)(=O)N(C)C2	2.33
COc1cccc(CCC2CCCN(C(=O)C3=NN(C)C(=O)CC3)C2)c1 (centres undefined)	-5.36
Cn1c(C(=O)N2CCC(C3OCCO3)CC2)c(Cl)c2ccccc21	-9.46
CS(=O)(=O)CCOCCNc1ccc(C#N)cc1F	-7.64
CC(=O)c1sc(Nc2ccc(Cl)cn2)nc1C	31.3
CCN(CC(C)O)C(=O)Nc1cnn(CCOC)c1 (centres undefined)	6.07
CSCCCN1CCn2nc(CNC(=O)N(C)C)cc2C1	0.863
Cc1cc(-c2nc(C3(NC(=O)OC(C)(C)C)CCC3)no2)on1	-5.47
COCCN1CCC(CNC(=O)CCc2cc(F)ccc2F)C1 (centres undefined)	-4.52
COc1ccc(CN2CCCCC2c2n[nH]cc2-c2cc(C)no2)cc1 (centres undefined)	11
CCOC(=O)Cn1ccc(NC(=O)Cc2ccccc2F)n1	-18.1
CCN(Cc1noc(C(C)C)n1)Cc1ccc(C#N)cc1F	27.6
CCc1cnc(N)nc1NCCN1CCCCC1	23
O=C(NCCCC(=O)N1CCN(CC2CC2)c2ccccc21)C1CC1	-7.6
CN(CC1CC1)S(=O)(=O)c1ccc(C(F)(F)F)cc1C#N	-11.7
Cc1nc(NCc2nonc2C)cc(C(C)Cn2nc(C)c(C)c2C)n1 (centres undefined)	-7.72
CCC(CC)CN1CCC2(CCCN(c3ncccn3)C2)C1 (centres undefined)	25.1
COc1ccccc1OC1CN(C(=O)Cc2c(C)nc3ccccn23)C1	2.44

SMILES	cytotoxicity at 70.5 h [%]
CCc1nc2n(n1)CCCC2NC(=O)Nc1ccc(SC)c(F)c1 (centres undefined)	-6.66
COC(=O)C(NC(=O)c1ccco1)c1cc(F)ccc1F (centres undefined)	-15.6
C/C=C(\C)CN1C[C@H](NC(=O)CCOC)[C@@H](c2ccc(C)o2)C1	-18
CCc1cnc(C)nc1NCc1nc(COC)no1	-6.43
COc1ccc(CC(=O)N2C[C@@H]3COC[C@]3(CN(C)C)C2)cc1	-17.9
Cc1cncc(C(=O)N2CCO[C@H]3[C@H](OCCN(C)C)CC[C@@H]32)c1	-12.9
CN1CCC(N[C@@H]2CO[C@H](CNC(=O)Nc3ccccc3)[C@H]2O)CC1	-2.44
CC(C)CNC(=O)CNc1c(NCc2ccncc2)c(=O)c1=O	4.58
CC(C)CN1CCC(C(=O)Nc2cc(C(F)(F)F)c[nH]c2=O)CC1	-6.4
O=C(CN1CCC(Nc2ncccn2)CC1)Nc1ccccc1	-5.9
CN(Cc1ccc(Br)s1)Cn1nc(-c2ccccc2)oc1=O	-9.53
COc1ccc(-n2ccc(C(=O)N3CCC(C(N)=O)C3)n2)cc1 (centres undefined)	23.5
O=C1Nc2ccccc2CNC12CCN(CC1CCNC1)CC2 (centres undefined)	-11
COc1cccc(CNC(=O)CC2CSc3nc(C)c(C)c(=O)n32)c1 (centres undefined)	-2.74
CCS(=O)(=O)c1ccc2oc([C@H]3CCN(Cc4ccccn4)C3)nc2c1	2.52
CC(C)c1cc(NC(=O)CN2CCNC(=O)C2)on1	-5.09
Cc1ccc(NCC2(O)CCNCC2)cc1C	-1.72
CCn1c(C)nnc1SCCNC(=O)c1cccc2ccnn12	14.1
CC(C)N1CC(C(=O)N2CCC(Oc3ccccc3Cl)CC2)CC1=O (centres undefined)	-0.961
Cc1cc2c(cc1Cl)C=CC1(CCN(CC(=O)NC3CCCC3)CC1)O2	-1.12
O=C(c1cscn1)N1CCc2ncc(CN3CCCC3)n2CC1	-8.65
O=C(NC[C@H]1C[C@@H]2CCN1C[C@@H]2CN1CCCCC1)Nc1ccccc1	-1.01
